Laboratory results: ChEMBL document CHEMBL1201862, “PubChem BioAssay data set” (2004)
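The compound was tested at five concentrations on cells cultured in 96-well plates, with a 48-hour exposure period. GI50 marks 50% less growth.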 The source made the active and inactive calls. Rule as the data show it: active = GI50 up to about 1.1 µM and inactive = higher.

Assays:
Experiment in all cases: NCI tumour cell line growth inhibition, 48 h
786-0 = system: 786-0
A498 = system: A498
CCRF-CEM = system: CCRF-CEM
COLO 205 = system: COLO 205
DU-145 = system: DU-145
EKVX = system: EKVX
HCC 2998 = system: HCC 2998
HL-60 = system: HL-60
HT-29 = system: HT-29
K562 = system: K562
MCF7 = system: MCF7
OVCAR-4 = system: OVCAR-4
OVCAR-5 = system: OVCAR-5
SF-268 = system: SF-268
SK-MEL-2 = system: SK-MEL-2
SNB-75 = system: SNB-75
TK-10 = system: TK-10
UACC-257 = system: UACC-257
CAKI-1 = system: CAKI-1
Malme-3M = system: Malme-3M

Row | SMILES | GI50 (786-0) | GI50 (A498) | GI50 (CCRF-CEM) | GI50 (COLO 205) | GI50 (DU-145) | GI50 (EKVX) | GI50 (HCC 2998) | GI50 (HL-60) | GI50 (HT-29) | GI50 (K562) | GI50 (MCF7) | GI50 (OVCAR-4) | GI50 (OVCAR-5) | GI50 (SF-268) | GI50 (SK-MEL-2) | GI50 (SNB-75) | GI50 (TK-10) | GI50 (UACC-257) | GI50 (CAKI-1) | GI50 (Malme-3M)
1 | CC(=O)Oc1c(C)cc2c(c1C)C(C)(C)CN2C(=O)C(C)(C)C | > 100 µM (inactive) | 55.6 µM (inactive) | 65.9 µM (inactive) | 58.1 µM (inactive) | > 100 µM (inactive) | > 100 µM (inactive) | > 100 µM (inactive) | 63.8 µM (inactive) | 33.1 µM (inactive) | 51.9 µM (inactive) | > 100 µM (inactive) | 71.8 µM (inactive) | > 100 µM (inactive) | > 100 µM (inactive) | > 100 µM (inactive) | 0.504 µM (active) | > 100 µM (inactive) | > 100 µM (inactive) |  | 
2 | COC(=O)/C=C1\C(CO[Si](C)(C)C(C)(C)C)OC(n2ccc(=O)[nH]c2=O)C1O (stereo not given) | 6.04 µM (inactive) | 17.5 µM (inactive) | 6.27 µM (inactive) | 4.26 µM (inactive) | 7.06 µM (inactive) | 8.63 µM (inactive) | 7.71 µM (inactive) |  | 7.33 µM (inactive) | 5.4 µM (inactive) | 4.91 µM (inactive) | 15 µM (inactive) | 16.5 µM (inactive) | 0.367 µM (active) | 6.25 µM (inactive) | 12.1 µM (inactive) | 24.2 µM (inactive) | 4.73 µM (inactive) | 22.6 µM (inactive) | 
3 | CCOc1cc(/C=C2\N=C(c3ccccc3)N(c3nc4ccccc4s3)C2=O)ccc1O | 61.1 µM (inactive) | 45.4 µM (inactive) | 34.3 µM (inactive) |  | 45.1 µM (inactive) | > 100 µM (inactive) | 25.1 µM (inactive) | 27.9 µM (inactive) | 64.1 µM (inactive) | 27.9 µM (inactive) | 33.3 µM (inactive) | 48.3 µM (inactive) | > 100 µM (inactive) | 42 µM (inactive) | 23.8 µM (inactive) | 51.2 µM (inactive) | 56.9 µM (inactive) | 48.8 µM (inactive) | 39.9 µM (inactive) | 
4 | CC#CC(O)(C(=O)OCCCN(C)C)C1CCCCC1 (stereo not given) | > 100 µM (inactive) | > 100 µM (inactive) | > 100 µM (inactive) | > 100 µM (inactive) | > 100 µM (inactive) | > 100 µM (inactive) | > 100 µM (inactive) | > 100 µM (inactive) | > 100 µM (inactive) | > 100 µM (inactive) | > 100 µM (inactive) |  | > 100 µM (inactive) | > 100 µM (inactive) | > 100 µM (inactive) | > 100 µM (inactive) | > 100 µM (inactive) | > 100 µM (inactive) |  | > 100 µM (inactive)
5 | O=C(O)c1ccccc1NC(=S)c1ccccc1 | 47.4 µM (inactive) | 61.9 µM (inactive) | 45.5 µM (inactive) | 39.1 µM (inactive) | > 100 µM (inactive) | 37.8 µM (inactive) | < 0.01 µM (active) | 34 µM (inactive) | 37.8 µM (inactive) | 39.2 µM (inactive) | 31.3 µM (inactive) | 0.0592 µM (active) | > 100 µM (inactive) | 64 µM (inactive) |  |  | 35.8 µM (inactive) | 29.7 µM (inactive) | 43 µM (inactive) | 19.1 µM (inactive)
6 | CC12O[C@]3([C@H](C(=O)N4CCOC43C)[C@H]1Cl)[C@H]1O[C@H]12 (stereo not given in full) | > 100 µM (inactive) | > 100 µM (inactive) |  | 24.6 µM (inactive) | > 100 µM (inactive) | > 100 µM (inactive) | > 100 µM (inactive) | > 100 µM (inactive) | > 100 µM (inactive) | 98.6 µM (inactive) | > 100 µM (inactive) | > 100 µM (inactive) | > 100 µM (inactive) | > 100 µM (inactive) | > 100 µM (inactive) | > 100 µM (inactive) | > 100 µM (inactive) | > 100 µM (inactive) | > 100 µM (inactive) | 
7 | c1cncc(C2(c3cc4ccccc4[nH]3)COCO2)c1 (stereo not given) | > 100 µM (inactive) |  | 10.5 µM (inactive) | 19.1 µM (inactive) | > 100 µM (inactive) | > 100 µM (inactive) | > 100 µM (inactive) | 32.7 µM (inactive) | > 100 µM (inactive) | > 100 µM (inactive) | > 100 µM (inactive) | 65 µM (inactive) | > 100 µM (inactive) | > 100 µM (inactive) | > 100 µM (inactive) | > 100 µM (inactive) | > 100 µM (inactive) | > 100 µM (inactive) | > 100 µM (inactive) | > 100 µM (inactive)
8 | Cc1ccnc2c1ccc1nc3ccccc3n12 | 52.6 µM (inactive) | > 100 µM (inactive) | > 100 µM (inactive) | > 100 µM (inactive) | > 100 µM (inactive) | 1.88 µM (inactive) | > 100 µM (inactive) | 85.3 µM (inactive) | 77.4 µM (inactive) | > 100 µM (inactive) | 4.45 µM (inactive) | 37.8 µM (inactive) | > 100 µM (inactive) | 25.1 µM (inactive) | > 100 µM (inactive) | 31.7 µM (inactive) | > 100 µM (inactive) | > 100 µM (inactive) | 11.4 µM (inactive) | 
9 | CCOC(=O)c1cnc2oc3ccc(O)cc3c2c1-c1ccccc1 | 58.3 µM (inactive) | > 100 µM (inactive) | 16.4 µM (inactive) | 28.5 µM (inactive) | > 100 µM (inactive) | 57.3 µM (inactive) | > 100 µM (inactive) | 14.6 µM (inactive) | 71.6 µM (inactive) | 17.6 µM (inactive) | 44.7 µM (inactive) | 24.4 µM (inactive) | > 100 µM (inactive) |  | 15.1 µM (inactive) |  | > 100 µM (inactive) | > 100 µM (inactive) | > 100 µM (inactive) | 23 µM (inactive)
10 | CC1=NN(C(=O)CC(=O)Nc2cccc(Cl)c2)C(=O)C1/N=N\c1ccc(S(=O)(=O)c2ccc(/N=N/C3C(=O)N(C(=O)CC(=O)Nc4cccc(Cl)c4)N=C3C)cc2)cc1 (stereo not given) | > 100 µM (inactive) |  | > 100 µM (inactive) | > 100 µM (inactive) | 83.8 µM (inactive) | > 100 µM (inactive) | > 100 µM (inactive) | > 100 µM (inactive) | > 100 µM (inactive) | > 100 µM (inactive) | > 100 µM (inactive) | > 100 µM (inactive) | > 100 µM (inactive) | > 100 µM (inactive) | > 100 µM (inactive) | > 100 µM (inactive) | > 100 µM (inactive) | > 100 µM (inactive) | > 100 µM (inactive) | > 100 µM (inactive)
11 | CCOC(=O)/C(=C\c1ccc(CO)o1)P(=O)(OCC)OCC | 19.7 µM (inactive) | 55.3 µM (inactive) |  | 23 µM (inactive) | 41.9 µM (inactive) | > 100 µM (inactive) | > 100 µM (inactive) |  | 33.2 µM (inactive) |  | 43.9 µM (inactive) | 19.9 µM (inactive) | 50 µM (inactive) | 28.2 µM (inactive) | 25.2 µM (inactive) | 33 µM (inactive) | 49.5 µM (inactive) | 44.6 µM (inactive) | 55.7 µM (inactive) | 20.8 µM (inactive)
12 | Fc1ccc(C(OCCN2CCC3CCC(C2)N3C/C=C/c2ccco2)c2ccc(F)cc2)cc1 (stereo not given) | 9.4 µM (inactive) | 11.2 µM (inactive) | 0.0459 µM (active) | 1.69 µM (inactive) | 15.7 µM (inactive) |  | 4.94 µM (inactive) |  |  | 3.21 µM (inactive) | 10.2 µM (inactive) | 10.2 µM (inactive) |  | 12.5 µM (inactive) | 12.3 µM (inactive) | 15.1 µM (inactive) | 6.93 µM (inactive) | 4.44 µM (inactive) | 12.8 µM (inactive) | 9.57 µM (inactive)
13 | CC(C)(C)C1CCC2c3c([nH]c4ccccc34)C3C(=O)N(c4ccc([N+](=O)[O-])cc4)C(=O)C3C2C1 (stereo not given) | 5.11 µM (inactive) | 24.3 µM (inactive) | 8.51 µM (inactive) | 8.71 µM (inactive) | 26.7 µM (inactive) | 25.3 µM (inactive) | 9.14 µM (inactive) | 6.11 µM (inactive) | 3.89 µM (inactive) | 5.96 µM (inactive) | 2.79 µM (inactive) | 5.62 µM (inactive) | 25.2 µM (inactive) | 7.36 µM (inactive) | 11.8 µM (inactive) | 16.9 µM (inactive) | 21.3 µM (inactive) | 29.1 µM (inactive) |  | 20.5 µM (inactive)
14 | CSc1scc2c1/C(=N/NC(N)=O)CCC2 | > 100 µM (inactive) | 39.7 µM (inactive) | 41.1 µM (inactive) | > 100 µM (inactive) | 45.2 µM (inactive) |  | > 100 µM (inactive) |  | > 100 µM (inactive) | > 100 µM (inactive) | 90.4 µM (inactive) | > 100 µM (inactive) | > 100 µM (inactive) | 38.5 µM (inactive) | > 100 µM (inactive) | 36.7 µM (inactive) | > 100 µM (inactive) | > 100 µM (inactive) | 69.7 µM (inactive) | 
15 | NCCC(=O)N[C@@H](Cc1cc(O)c(O)c(SCC(NC(=O)CC[C@H](N)C(=O)O)C(=O)NCC(=O)O)c1)C(=O)O (stereo not given in full) | > 50 µM (inactive) | > 50 µM (inactive) |  | > 50 µM (inactive) | > 50 µM (inactive) | > 50 µM (inactive) | > 50 µM (inactive) |  | > 50 µM (inactive) | > 50 µM (inactive) | > 50 µM (inactive) | > 50 µM (inactive) | > 50 µM (inactive) | > 50 µM (inactive) | > 50 µM (inactive) | > 50 µM (inactive) | > 50 µM (inactive) | > 50 µM (inactive) | > 50 µM (inactive) | > 50 µM (inactive)
